# Measured values reported in patent US9427482B2, “Agents for clearing biomolecules from circulation” (KONINKLIJKE PHILIPS N.V., priority 2010, dated 2016).
# Columns and labels:
# LS174T xenografts [1] = assay: Dual isotope biodistribution with different amounts of clearing agent 12 (Example 6); assay type: in vivo, mice
# Method: (§1) LS174T tumor model. The human colon cancer cell line LS174T was obtained from the ATCC and maintained in Eagle's minimal essential medium (Sigma) supplemented with 10% heat inactivated fetal calf serum (Gibco), penicillin (100 U/mL), streptomycin (100 μg/mL) and […] Glutamax. Nude female Balb/C mice (20-25 g body weight, Charles River Laboratories) were inoculated subcutaneously with 5×10^6 cells in 100 μL sterile PBS.
# Nude female mice (n=3-4) bearing LS174T xenografts (0.32±0.16 g) were injected ^125I-CC49-TCO (t=0, 100 μg/100 μl per mouse) followed by 20-200 μg galactose-MSA-tetrazine (12) dissolved in 100 μl saline solution (t=24 hours) and ^111In-labeled 15 (21.3 μg/75 μl per mouse, t=26 hours). At 29 hours post mAb injection, the mice were sacrificed, blood was withdrawn by heart puncture and selected organs and tissues were harvested and blotted dry. The blood samples and tissues were weighed, added with 1 mL PBS and the radioactivity was counted in a gamma counter along with standards to determine the % ID/g (Table 1).
# LS174T xenografts [2] = assay: Biodistribution with single and repeated dose of clearing agent 12 (Example 7); assay type: in vivo, mice
# Method: as §1
# Nude female mice (n=4-6) bearing LS174T xenografts (0.38±0.23 g) were injected ^125I-CC49-TCO (t=0, 100 μg/100 μl per mouse) followed by (a) one 160 μg/100 μl dose of galactose-MSA-tetrazine (12) 48 hours post mAb injection, or (b) two 160 μg/100 μl 12 doses 46 and 48 hours post mAb injection, or (c) two 160 μg/100 μl 12 doses 28 and 48 hours post mAb injection. At 50 hours post mAb injection, the mice received 8.52 μg ^111In-tetrazine and were then sacrificed three hours later, blood was withdrawn by heart puncture and selected organs and tissues were harvested and blotted dry. The blood samples and tissues were weighed, added with 1 mL PBS and the radioactivity was counted in a gamma counter along with standards to determine the % ID/g. The biodistribution data of ^125I-CC49-TCO and ^111In-tetrazine are shown in Table 2 and the ^111In-tetrazine T/organ values are shown in Table 3.
# [3] = without clearing agent, 21.3 μg tetrazine/mouse 24 hours post mAb injection; cited from earlier work
# [4] = One dose (a): 12 at 48 h post mAb
# [5] = Two doses (b): 12 at 46 and 48 h
# [6] = Two doses (c): 12 at 28 and 48 h
compound,measurement,setting,value
O=C([O-])CN1CCN(CC(=O)[O-])CCN(CC(=O)NCCOCCOCCOCCOCCOCCOCCOCCOCCOCCOCCOCCNC(=O)CCCC(=O)Nc2ccc(-c3nnc(-c4ccccn4)nn3)nc2)CCN(CC(=O)[O-])CC1.[111In+3] [^111In-tetrazine],^111In-tetrazine T/B,LS174T xenografts [1]; 12 dose 20 μg/mouse,4.5 ± 0.5
same,^111In-tetrazine Tumor,LS174T xenografts [1]; 12 dose 20 μg/mouse,3.7 ± 0.8 % ID/g
same,^111In-tetrazine T/B,LS174T xenografts [1]; 12 dose 45 μg/mouse,4.8 ± 0.3
same,^111In-tetrazine Tumor,LS174T xenografts [1]; 12 dose 45 μg/mouse,4.1 ± 1.3 % ID/g
same,^111In-tetrazine T/B,LS174T xenografts [1]; 12 dose 80 μg/mouse,9.2 ± 1.6
same,^111In-tetrazine Tumor,LS174T xenografts [1]; 12 dose 80 μg/mouse,3.8 ± 1.1 % ID/g
same,^111In-tetrazine T/B,LS174T xenografts [1]; 12 dose 120 μg/mouse,11.5 ± 4.2
same,^111In-tetrazine Tumor,LS174T xenografts [1]; 12 dose 120 μg/mouse,3.0 ± 0.8 % ID/g
same,^111In-tetrazine T/B,LS174T xenografts [1]; 12 dose 160 μg/mouse,31.6 ± 10.5
same,^111In-tetrazine Tumor,LS174T xenografts [1]; 12 dose 160 μg/mouse,5.1 ± 1.4 % ID/g
same,^111In-tetrazine T/B,LS174T xenografts [1]; 12 dose 200 μg/mouse,19.2 ± 3.0
same,^111In-tetrazine Tumor,LS174T xenografts [1]; 12 dose 200 μg/mouse,3.6 ± 0.9 % ID/g
same,^111In-tetrazine T/organ blood,LS174T xenografts [2]; [4],8.2±4.1
same,^111In-tetrazine T/organ bone,LS174T xenografts [2]; [4],10.5 ± 6.5
same,^111In-tetrazine T/organ brain,LS174T xenografts [2]; [4],148.05 ± 61.18
same,^111In-tetrazine T/organ heart,LS174T xenografts [2]; [4],6.7 ± 1.3
same,^111In-tetrazine T/organ kidney,LS174T xenografts [2]; [4],2.8 ± 0.3
same,^111In-tetrazine T/organ liver,LS174T xenografts [2]; [4],10.9 ± 1.7
same,^111In-tetrazine T/organ lung,LS174T xenografts [2]; [4],3.1 ± 0.5
same,^111In-tetrazine T/organ muscle,LS174T xenografts [2]; [4],9.2±3.6
same,^111In-tetrazine T/organ spleen,LS174T xenografts [2]; [4],11.3 ± 3.3
same,^111In-tetrazine in blood,LS174T xenografts [2]; [4],0.40 ± 0.10 % ID/g
same,^111In-tetrazine in bone,LS174T xenografts [2]; [4],0.33 ± 0.12 % ID/g
same,^111In-tetrazine in brain,LS174T xenografts [2]; [4],0.02 ± 0.00 % ID/g
same,^111In-tetrazine in heart,LS174T xenografts [2]; [4],0.45 ± 0.08 % ID/g
same,^111In-tetrazine in kidney,LS174T xenografts [2]; [4],1.07 ± 0.10 % ID/g
same,^111In-tetrazine in liver,LS174T xenografts [2]; [4],0.27 ± 0.04 % ID/g
same,^111In-tetrazine in lung,LS174T xenografts [2]; [4],0.97 ± 0.17 % ID/g
same,^111In-tetrazine in muscle,LS174T xenografts [2]; [4],0.35 ± 0.08 % ID/g
same,^111In-tetrazine in spleen,LS174T xenografts [2]; [4],0.27 ± 0.04 % ID/g
same,^111In-tetrazine in tumor,LS174T xenografts [2]; [4],2.98 ± 0.51 % ID/g
same,^111In-tetrazine T/organ blood,LS174T xenografts [2]; [5],15.2 ± 4.1
same,^111In-tetrazine T/organ bone,LS174T xenografts [2]; [5],16.7 ± 6.7
same,^111In-tetrazine T/organ brain,LS174T xenografts [2]; [5],222.2 ± 73.6
same,^111In-tetrazine T/organ heart,LS174T xenografts [2]; [5],25.6 ± 12.0
same,^111In-tetrazine T/organ kidney,LS174T xenografts [2]; [5],1.6 ± 0.6
same,^111In-tetrazine T/organ liver,LS174T xenografts [2]; [5],11.5 ± 3.7
same,^111In-tetrazine T/organ lung,LS174T xenografts [2]; [5],8.5 ± 4.2
same,^111In-tetrazine T/organ muscle,LS174T xenografts [2]; [5],19.3 ± 9.2
same,^111In-tetrazine T/organ spleen,LS174T xenografts [2]; [5],15.1 ± 4.9
same,^111In-tetrazine in blood,LS174T xenografts [2]; [5],0.10 ± 0.02 % ID/g
same,^111In-tetrazine in bone,LS174T xenografts [2]; [5],0.10 ± 0.02 % ID/g
same,^111In-tetrazine in brain,LS174T xenografts [2]; [5],0.01 ± 0.00 % ID/g
same,^111In-tetrazine in heart,LS174T xenografts [2]; [5],0.07 ± 0.02 % ID/g
same,^111In-tetrazine in kidney,LS174T xenografts [2]; [5],0.95 ± 0.06 % ID/g
same,^111In-tetrazine in liver,LS174T xenografts [2]; [5],0.13 ± 0.01 % ID/g
same,^111In-tetrazine in lung,LS174T xenografts [2]; [5],0.20 ± 0.07 % ID/g
same,^111In-tetrazine in muscle,LS174T xenografts [2]; [5],0.09 ± 0.03 % ID/g
same,^111In-tetrazine in spleen,LS174T xenografts [2]; [5],0.10 ± 0.00 % ID/g
same,^111In-tetrazine in tumor,LS174T xenografts [2]; [5],1.52 ± 0.48 % ID/g
same,^111In-tetrazine T/organ blood,LS174T xenografts [2]; [6],89.0±14.3
same,^111In-tetrazine T/organ bone,LS174T xenografts [2]; [6],93.5 ± 19.7
same,^111In-tetrazine T/organ brain,LS174T xenografts [2]; [6],750.2 ± 87.5
same,^111In-tetrazine T/organ heart,LS174T xenografts [2]; [6],82.9 ± 21.3
same,^111In-tetrazine T/organ kidney,LS174T xenografts [2]; [6],3.7 ± 0.8
same,^111In-tetrazine T/organ liver,LS174T xenografts [2]; [6],32.3 ± 5.9
same,^111In-tetrazine T/organ lung,LS174T xenografts [2]; [6],27.9 ± 7.0
same,^111In-tetrazine T/organ muscle,LS174T xenografts [2]; [6],146.3±30.3
same,^111In-tetrazine T/organ spleen,LS174T xenografts [2]; [6],42.4 ± 7.7
same,^111In-tetrazine in blood,LS174T xenografts [2]; [6],0.05 ± 0.00 % ID/g
same,^111In-tetrazine in bone,LS174T xenografts [2]; [6],0.05 ± 0.01 % ID/g
same,^111In-tetrazine in brain,LS174T xenografts [2]; [6],0.01 ± 0.00 % ID/g
same,^111In-tetrazine in heart,LS174T xenografts [2]; [6],0.05 ± 0.01 % ID/g
same,^111In-tetrazine in kidney,LS174T xenografts [2]; [6],1.18 ± 0.13 % ID/g
same,^111In-tetrazine in liver,LS174T xenografts [2]; [6],0.13 ± 0.01 % ID/g
same,^111In-tetrazine in lung,LS174T xenografts [2]; [6],0.16 ± 0.03 % ID/g
same,^111In-tetrazine in muscle,LS174T xenografts [2]; [6],0.03 ± 0.00 % ID/g
same,^111In-tetrazine in spleen,LS174T xenografts [2]; [6],0.10 ± 0.01 % ID/g
same,^111In-tetrazine in tumor,LS174T xenografts [2]; [6],4.30 ± 0.50 % ID/g
same,T/blood ratio,[3],2.2±0.5
